According to patent US7803804B2, “Substituted pyrazines for use in the treatment of inflammatory or allergic conditions” (Novartis AG, priority 2005, dated 2010):

Molecular target: T1, epithelial sodium channel (ENaC) (Homo sapiens, UniProt P37088+P51168+P51170)
T1 construct: host or cells: primary human bronchial epithelial cells (HBECs), differentiated at air-liquid interface
T1 sequence (P37088 1-669): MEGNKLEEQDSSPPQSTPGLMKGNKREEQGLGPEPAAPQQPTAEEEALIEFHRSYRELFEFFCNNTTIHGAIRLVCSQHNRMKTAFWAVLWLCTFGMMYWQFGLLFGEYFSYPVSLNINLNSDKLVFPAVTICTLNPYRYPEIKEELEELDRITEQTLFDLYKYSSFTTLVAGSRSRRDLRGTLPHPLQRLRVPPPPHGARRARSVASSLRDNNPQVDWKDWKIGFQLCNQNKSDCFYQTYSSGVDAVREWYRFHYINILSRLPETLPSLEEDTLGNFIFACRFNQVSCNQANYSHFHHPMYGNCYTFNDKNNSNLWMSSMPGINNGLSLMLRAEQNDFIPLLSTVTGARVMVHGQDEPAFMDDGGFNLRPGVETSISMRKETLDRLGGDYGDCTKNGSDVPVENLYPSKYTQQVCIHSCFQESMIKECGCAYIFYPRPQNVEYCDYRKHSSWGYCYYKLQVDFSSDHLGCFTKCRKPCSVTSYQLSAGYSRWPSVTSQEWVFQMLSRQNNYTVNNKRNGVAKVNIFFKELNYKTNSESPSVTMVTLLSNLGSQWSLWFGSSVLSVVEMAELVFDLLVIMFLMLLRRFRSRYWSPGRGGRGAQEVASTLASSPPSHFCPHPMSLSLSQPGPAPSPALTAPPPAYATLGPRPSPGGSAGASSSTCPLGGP
T1 sequence (P51168 1-640): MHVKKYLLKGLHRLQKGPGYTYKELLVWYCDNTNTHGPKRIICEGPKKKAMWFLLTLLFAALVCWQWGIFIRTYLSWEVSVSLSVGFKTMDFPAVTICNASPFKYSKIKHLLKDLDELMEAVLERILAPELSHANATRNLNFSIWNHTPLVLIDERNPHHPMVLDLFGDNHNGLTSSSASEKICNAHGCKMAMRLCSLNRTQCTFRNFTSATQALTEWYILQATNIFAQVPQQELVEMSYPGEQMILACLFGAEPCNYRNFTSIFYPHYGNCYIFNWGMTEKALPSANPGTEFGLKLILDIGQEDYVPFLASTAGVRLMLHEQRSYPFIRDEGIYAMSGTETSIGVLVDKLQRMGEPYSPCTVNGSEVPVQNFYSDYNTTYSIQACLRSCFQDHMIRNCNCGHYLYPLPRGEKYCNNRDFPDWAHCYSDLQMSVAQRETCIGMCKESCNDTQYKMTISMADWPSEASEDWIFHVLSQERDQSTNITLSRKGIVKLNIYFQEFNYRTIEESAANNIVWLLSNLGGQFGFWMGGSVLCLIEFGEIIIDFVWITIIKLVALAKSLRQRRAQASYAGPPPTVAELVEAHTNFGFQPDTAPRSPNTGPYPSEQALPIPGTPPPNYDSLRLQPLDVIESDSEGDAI
T1 sequence (P51170 1-649): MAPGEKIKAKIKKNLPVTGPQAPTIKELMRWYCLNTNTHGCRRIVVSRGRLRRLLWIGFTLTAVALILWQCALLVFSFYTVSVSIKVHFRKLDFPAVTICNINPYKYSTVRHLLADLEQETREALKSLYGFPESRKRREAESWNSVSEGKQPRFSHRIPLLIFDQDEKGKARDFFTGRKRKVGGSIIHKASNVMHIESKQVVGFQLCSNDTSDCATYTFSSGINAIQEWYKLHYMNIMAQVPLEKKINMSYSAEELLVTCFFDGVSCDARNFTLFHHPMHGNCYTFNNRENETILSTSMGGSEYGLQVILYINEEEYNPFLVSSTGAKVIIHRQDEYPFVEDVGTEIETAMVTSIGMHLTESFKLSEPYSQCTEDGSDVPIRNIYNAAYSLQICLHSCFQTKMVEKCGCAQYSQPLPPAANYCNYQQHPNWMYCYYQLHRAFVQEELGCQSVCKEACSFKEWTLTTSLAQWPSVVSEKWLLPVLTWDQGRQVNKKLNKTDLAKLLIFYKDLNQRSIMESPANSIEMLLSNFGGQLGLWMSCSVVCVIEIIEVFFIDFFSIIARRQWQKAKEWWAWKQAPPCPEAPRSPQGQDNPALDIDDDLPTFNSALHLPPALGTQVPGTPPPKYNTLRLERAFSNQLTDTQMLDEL
Assay: Short circuit current (ISC) measurements in human bronchial epithelial cells, inhibition of the amiloride-sensitive ISC
Format: cell-based
Conditions: air-liquid interface culture, Ussing chamber, compound added to the apical chamber
Method: Compounds of formula (I) and their pharmaceutically acceptable salts, hereinafter referred to alternatively as “agents of the invention”, are useful as pharmaceuticals. In particular, the compounds have good ENaC blocker activity and may be tested in the following assays.
Human Bronchial Epithelial cells (HBECS) (Cambrex) were cultured under air-liquid interface conditions to provide a well differentiated mucociliary phenotype.
HBECs were cultured using a modification of the method described by Gray and colleagues (Gray et al., 1996). […]
Snapwell inserts were mounted in Vertical Diffusion Chambers (Costar) and were bathed with continuously gassed Ringer solution (5% CO2 in O2; pH 7.4) maintained at 37° C. containing (in mM): 120 NaCl, 25 NaHCO3, 3.3 KH2PO4, 0.8 K2HPO4, 1.2 CaCl2, 1.2 MgCl2, and 10 glucose. […] RT was measured by applying a 1- or 2-mV pulse at 30-s intervals and calculating RT by Ohm's law. Data were recorded using a PowerLab workstation (ADInstruments).
Test compounds were prepared as a 10 mM stock solution in DMSO (95%). […] At the completion of the concentration-response experiment, amiloride (10 μM) was added into the apical chamber to enable the total amiloride-sensitive current to be measured. […]
Results are expressed as the mean % inhibition of the amiloride-sensitive ISC. […] Cell inserts were typically run in duplicate and the IC50 calculated on the mean % inhibition data.

Row | IC50 | SMILES
1 | 5.7 nM | N=C(NCC1CCC(CNC(=N)NC(=O)c2nc(Cl)c(N)nc2N)CC1)NC(=O)c1nc(Cl)c(N)nc1N (centres unmarked) [Example 2]
2 | 0.2 nM | N=C(NC(=O)c1nc(Cl)c(N)nc1N)N[C@H]1CC[C@H](NC(=N)NC(=O)c2nc(Cl)c(N)nc2N)CC1 [Example 5]
